Where “and” joins values, the source holds several entries; their conditions need not be identical. Equal entries are not always repeated. Entries after “also recorded” stand apart in the source; their conditions may differ. Where two headings read alike, the source gives them in different places.
Columns and labels:
[1] = system: Ehrlich's ascitic carcinoma; assay: Incorporation of 14C-adenine and 14C-valine into cellular fraction of Ehrlich's ascitic carcinoma in vitro; assay type: cell-based, mouse; conditions: for Radioactivity incorporation, adenine: control 1060 cpm; for Radioactivity incorporation, valine: control 2455 cpm; for IC50 / activity at 75 µM / activity at 150 µM / activity at 18.75 µM / activity at 37.5 µM: Mus musculus, Ehrlich
Text: In Table 4, the effect of Tiloron (NSC 143969; 2,7-bis-[2-(diethylamino)ethoxy]fluorene-9-one) and 5-(2-dimethylaminoethoxy)-7-oxo-7H-benzo(c) fluorene hydrochloride are compared on incorporation of ^14 C-adenine and ^14 C-valine with the cellular fraction of Ehrlich's ascitic carcinoma (insoluble in trichloacetic acid). The tests in vitro reveal that the composition of the invention was more than 10 times as effective as Tiloron. The inhibition of incorporation of adenine and valine into the used system of tumor cells is considered as an indication of an anti-tumorous, cytostatic action. This biological activity of the described compound is considerably greater than that of its congener Tiloron. (See also Table 4.)
Effects of Tiloron and substance 13468 on incorporation of ^14
C-adenine and ^14 C-valine
into cellular fraction of Ehrlichs ascitic carcinoma, insoluble in
in vitro. Radioactivity incorporation expressed in cpm.
IC50 = concentration inhibiting incorporation by 50 percent.

[2] = system: haemagglutinins (antibody formation); assay: Haemagglutinin titre in mouse serum after ram erythrocyte immunization; assay type: in vivo; conditions: for Haemagglutinins % of control titre / Haemagglutinins titre: day 9; for Haemagglutinins titre: control 343
Text: (§1) Haemagglutanin and haemolysin titres in mouse serum on day 9 after ram
(§2) immunization under effect of substance 13468. Substance injected
(§3) either for 5 days (2 days before, on day of, 2 days after immunization)
(§4) (2 days before, on day of, 8 days after immunization). Groups of 12
(§5) expressed by mean value of highest attenuation of serum eliciting

[3] = system: haemolysins (antibody formation); assay: Haemolysin titre in mouse serum after ram erythrocyte immunization; assay type: in vivo; conditions: day 9; for Haemolysins titre: control 37
Text: as §1, §2, §3, §4, §5

[4] = system: Yoshida's Tumor; assay: Inhibition of incorporation of labelled substrates in Yoshida's tumor; assay type: cell-based; conditions: Rattus norvegicus, read-out: IC50
Text: Tumor growth may be observed clinically or in experiments in vivo, that is, with experimental animals, or in vitro, for example, in tissue cultures prepared from tumors. Assessment of tumor growth may be effected by measuring the weight of the tumor mass or, more effectively, by measuring the radioactivity after incorporation therein of certain substances of natural origin such as amino acids, adenine, thymidine and the like labelled with radioactive atoms such as ^14 C, ^3 H, etc.
Thus, by way of exemplification, the IC^50 values (inhibitory concentration which lowered the initial rate of ^14 C incorporation to 50% of control) are shown in Table VI, below (Yoshida's Tumor, (U-^14 C) amino acid mixture)
The ^IC 50 values of compound 13468 are also shown in Table VII with varying substrates.

[5] = system: Ehrlich tumor; assay: Inhibition of incorporation of labelled substrate in Ehrlich tumor; assay type: cell-based; conditions: Mus musculus, substrate L-(U-14C) amino acid mixture
[6] = Acute toxicity in mice; conditions: mouse, in vivo, mice S, males 22-24 gram
Text: The anti-tumor compounds described herein have also been studied from the standpoint of toxicity and the conclusion drawn that they are not toxic to mammalian hosts. The toxicological data set forth in Table IX, below, supports this conclusion.

[7] = system: human myelogenous leukemia cells; assay: DNA biosynthesis inhibition in human myelogenous leukemia cells; assay type: cell-based

## CN(C)CCOc1cc2c(c3ccccc13)-c1ccccc1C2=O.Cl [compound 13468, 5-(2-Dimethylaminoethoxy)-7-oxo-7H-benzo(c) fluorene hydrochloride]
[1]; 75 μM
  Radioactivity incorporation, adenine: 266 cpm
  Radioactivity incorporation, valine: 887 cpm
[1]; 150 μM
  Radioactivity incorporation, adenine: 59 cpm
  Radioactivity incorporation, valine: 349 cpm
[1]; 18,75 μM
  Radioactivity incorporation, adenine: 757 cpm
  Radioactivity incorporation, valine: 2394 cpm
[1]; 37,5 μM
  Radioactivity incorporation, adenine: 714 cpm
  Radioactivity incorporation, valine: 2253 cpm
[1]; read-out: IC50 (concentration inhibiting incorporation by 50 percent), adenine
  IC50: 53 µM
[1]; read-out: IC50 (concentration inhibiting incorporation by 50 percent), valine
  IC50: 65 µM
[1]; 75 μM, read-out: Incorporation of adenine relative to control (0 μM = 100%)
  activity at 75 µM: 25%
[1]; 75 μM, read-out: Incorporation of valine relative to control (0 μM = 100%)
  activity at 75 µM: 36%
[1]; 150 μM, read-out: Incorporation of adenine relative to control (0 μM = 100%)
  activity at 150 µM: 6%
[1]; 150 μM, read-out: Incorporation of valine relative to control (0 μM = 100%)
  activity at 150 µM: 14%
[1]; 18,75 μM, read-out: Incorporation of adenine relative to control (0 μM = 100%)
  activity at 18.75 µM: 71%
[1]; 18,75 μM, read-out: Incorporation of valine relative to control (0 μM = 100%)
  activity at 18.75 µM: 98%
[1]; 37,5 μM, read-out: Incorporation of adenine relative to control (0 μM = 100%)
  activity at 37.5 µM: 87%
[1]; 37,5 μM, read-out: Incorporation of valine relative to control (0 μM = 100%)
  activity at 37.5 µM: 92%
[1]; adenine and valine incorporation, in vitro
  times as effective as Tiloron: more than 10 times
[2]; mice, in words, hydrochloride
  Immunosuppressive effect on antibody formation: immunosuppressive effects on antibody formation in mice; also recorded: inhibition of the formation of immunological serum anti-bodies
[2]; s.c. 5×8 mg/kg
  Haemagglutinins % of control titre: 71%
  Haemagglutinins titre: 243
[2]; s.c. 5×40 mg/kg
  Haemagglutinins % of control titre: 3.5%
  Haemagglutinins titre: 12
[2]; s.c. 11×8 mg/kg
  Haemagglutinins % of control titre: 71%
  Haemagglutinins titre: 243
[2]; s.c. 11×40 mg/kg, Suppressed
  Haemagglutinins % of control titre: under 2.9%
  Haemagglutinins titre: under 10
[3]; s.c. 5×8 mg/kg
  Haemolysins % of control titre: 132%
  Haemolysins titre: 49
[3]; s.c. 5×40 mg/kg
  Haemolysins % of control titre: under 27%
[3]; s.c. 5×40 mg/kg, Suppressed
  Haemolysins titre: under 10
[3]; s.c. 11×8 mg/kg
  Haemolysins % of control titre: under 27%
[3]; s.c. 11×8 mg/kg, Suppressed
  Haemolysins titre: under 10
[3]; s.c. 11×40 mg/kg
  Haemolysins % of control titre: under 27%
[3]; s.c. 11×40 mg/kg, Suppressed
  Haemolysins titre: under 10
[4]; substrate 5-iodo-2-deoxy(6-3H) uridine
  IC50: 12 µM
[4]; substrate (6-3H) uridine
  IC50: 36 µM and 12.6 µg/mL
[4]; substrate (thymine U-14C) thymidine
  IC50: 4 µM
[4]; substrate L-(U-14)leucine
  IC50: 29 µM
[4]; substrate L-(U-14C) amino acid mixture, Table VII
  IC50: 32 µM
[5]
  IC50: 31 µM
[6]; iv, intravenously
  LD50: 90 mg/kg
[6]; po, orally
  LD50: 600 mg/kg
[6]; sc, subcutaneously
  LD50: 490 mg/kg
[7]
  IC50: 5 µM
